From US8378104B2 (OSI Pharmaceuticals, LLC, priority 2010, dated 2013) come the findings set out here.

Where a name gives a salt, the structure may show the parent alone.

The first assay concerns the target T1, TAK1-TAB1 fusion protein (Homo sapiens, UniProt O43318).
T1 construct: purchased Carna
T1 sequence (O43318 with tags, fused parts or gaps limits assumed): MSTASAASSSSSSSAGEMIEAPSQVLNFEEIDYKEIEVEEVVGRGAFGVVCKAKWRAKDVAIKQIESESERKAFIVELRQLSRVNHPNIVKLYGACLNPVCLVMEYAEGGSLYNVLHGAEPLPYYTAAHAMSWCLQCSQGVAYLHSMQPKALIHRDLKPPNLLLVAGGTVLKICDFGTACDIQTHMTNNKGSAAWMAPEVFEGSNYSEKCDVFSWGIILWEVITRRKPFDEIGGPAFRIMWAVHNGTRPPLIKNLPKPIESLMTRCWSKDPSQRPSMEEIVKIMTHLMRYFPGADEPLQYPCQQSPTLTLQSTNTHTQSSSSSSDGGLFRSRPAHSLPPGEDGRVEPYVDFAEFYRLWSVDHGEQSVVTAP
Kind of assay: TAK1 biochemical assay (AlphaScreen, GST-MAP2K7 substrate).
Details: not given
For orientation: In Alpha technology, singlet oxygen from a donor bead excites a nearby acceptor bead.
Turning to `CC(=O)N1CCC(n2cc(-c3cnc(N)c4oc(C5=CCNCC5)cc34)cn2)CC1` [Example 95, 1-(4-{4-[7-amino-2-(1,2,3,6-tetrahydropyridin-4-yl)furo[2,3-c]pyridin-4-yl]-1H-pyrazol-1-yl}piperidin-1-yl)ethanone hydrochloride], the concentration for half-maximal inhibition (IC50) lay within 100 to 1000 nM.

The same assay, now with this note: TAK1-TAB1 fusion protein, GST-MAP2K7 substrate; read-out: mean TAK1 IC50 (Col. A).
Take `CC(=O)N1CCC(n2cc(-c3cnc(N)c4oc(-c5ccnc6ccccc56)cc34)cn2)CC1` [Example 175, 1-(4-{4-[7-amino-2-(quinolin-4-yl)furo[2,3-c]pyridin-4-yl]-1H-pyrazol-1-yl}piperidin-1-yl)ethanone]: the 50% inhibitory concentration (IC50) lay in the range of 100 to 1000 nM.

As to `CC(=O)N1CCC(n2cc(-c3cnc(N)c4oc(-c5ccc(CO)cc5)cc34)cn2)CC1` [Example 184, 1-[4-(4-{7-amino-2-[4-(hydroxymethyl)phenyl]furo[2,3-c]pyridin-4-yl}-1H-pyrazol-1-yl)piperidin-1-yl]ethanone], the IC50 lay in the range of 1000 to 10000 nM.

As for `Nc1ncc(-c2cnn(C3CCNCC3)c2)c2cc(-c3cccc4cc[nH]c34)oc12` [Example 42, 2-(1H-indol-7-yl)-4-[1-(piperidin-4-yl)-1H-pyrazol-4-yl]furo[2,3-c]pyridin-7-amine], the IC50 was in the range of 100 to 1000 nM.

Turning to `CN1CCC(n2cc(-c3cnc(N)c4oc(-c5cccc6ccsc56)cc34)cn2)CC1` [Example 57, 2-(1-benzothiophen-7-yl)-4-[1-(1-methylpiperidin-4-yl)-1H-pyrazol-4-yl]furo[2,3-c]pyridin-7-amine], the half-maximal inhibitory concentration (IC50) fell in the range of 1000 to 10000 nM.

`Nc1ncc(-c2cnn(C3CCNCC3)c2)c2cc(-c3ccn[nH]3)oc12` [Example 27, 4-[1-(piperidin-4-yl)-1H-pyrazol-4-yl]-2-(1H-pyrazol-5-yl)furo[2,3-c]pyridine-7-amine]: the 50% inhibitory concentration (IC50) lay within 1000 to 10000 nM.

For the compound `Nc1ncc(-c2cnn(C3CCNCC3)c2)c2cc(-c3cccc(-c4nnn[nH]4)c3)oc12` [Example 40, 4-[1-(piperidin-4-yl)-1H-pyrazol-4-yl]-2-[3-(1H-tetrazol-5-yl)phenyl]furo[2,3-c]pyridine-7-amine], the IC50 lay in the range of 1000 to 10000 nM.

Consider `CC(=O)N1CCC(n2cc(-c3cnc(N)c4oc(-c5cccc(N(C)C)c5)cc34)cn2)CC1` [Example 116], for which the IC50 was 1000 to 10000 nM.

For the compound `CCC(=O)N1CCC(n2cc(-c3cnc(N)c4oc(-c5cccc6ccsc56)cc34)cn2)CC1` [Example 58, 1-(4-{4-[7-amino-2-(1-benzothiophen-7-yl)furo[2,3-c]pyridin-4-yl]-1H-pyrazol-1-yl}piperidin-1-yl)propan-1-one], the IC50 fell in the range of 1000 to 10000 nM.

In the case of `C[C@]1(O)CC[C@H](n2cc(-c3cnc(N)c4oc(-c5cccc6cnccc56)cc34)cn2)CC1` [Example 75, trans-4-{4-[7-amino-2-(isoquinolin-5-yl)furo[2,3-c]pyridin-4-yl]-1H-pyrazol-1-yl}-1-methylcyclohexanol], the IC50 was in the range of 100 to 1000 nM.

With `Cc1cc(-c2cnc(N)c3oc(-c4csc5cnccc45)cc23)cs1` [Example 393, 4-(5-methylthiophen-3-yl)-2-(thieno[2,3-c]pyridin-3-yl)furo[2,3-c]pyridin-7-amine trifluoroacetate], the IC50 lay in the range of 1000 to 10000 nM.

`CC(=O)N1CCC(n2cc(-c3cnc(N)c4oc(-c5cccc(C(N)=O)c5)cc34)cn2)CC1` [Example 122, 3-{4-[1-(1-acetylpiperidin-4-yl)-1H-pyrazol-4-yl]-7-aminofuro[2,3-c]pyridin-2-yl}benzamide]: the IC50 was in the range of 100 to 1000 nM.

Consider `Nc1ncc(-c2cnn([C@H]3CC[C@H](O)CC3)c2)c2cc(-c3cc(-c4cc[nH]n4)cc4nnsc34)oc12` [Example 374, trans-4-(4-{7-amino-2-[5-(1H-pyrazol-3-yl)-1,2,3-benzothiadiazol-7-yl]furo[2,3-c]pyridin-4-yl}-1H-pyrazol-1-yl)cyclohexanol], for which the 50% inhibitory concentration (IC50) is 100 to 1000 nM.

In the case of `CC(=O)N1CCC(n2cc(-c3cnc(N)c4oc(-c5cccc(OCc6cccc(Cl)c6)c5)cc34)cn2)CC1` [Example 201, 1-{4-[4-(7-amino-2-{3-[(3-chlorobenzyl)oxy]phenyl}furo[2,3-c]pyridin-4-yl)-1H-pyrazol-1-yl]piperidin-1-yl}ethanone], the half-inhibitory concentration (IC50) is > 10000 nM.

With `Nc1ncc(-c2cnn(C3CCNCC3)c2)c2cc(-c3cccc(C(F)(F)F)c3)oc12` [Example 6, 4-[1-(piperidin-4-yl)-1H-pyrazol-4-yl]-2-[3-(trifluoromethyl)phenyl]furo[2,3-c]pyridin-7-amine], the IC50 lay in the range of 1000 to 10000 nM.

On to `CC(=O)N1CCC(n2cc(-c3cnc(N)c4oc(-c5cccc6ccoc56)cc34)cn2)CC1` [Example 196, 1-(4-{4-[7-amino-2-(1-benzofuran-7-yl)furo[2,3-c]pyridin-4-yl]-1H-pyrazol-1-yl}piperidin-1-yl)ethanone], for which the half-maximal inhibitory concentration (IC50) is > 10000 nM.

On to `CC(=O)N1CCC(n2cc(-c3cnc(N)c4oc(-c5ccc6c(c5)C(=O)NC6=O)cc34)cn2)CC1` [Example 100, 5-{4-[1-(1-acetylpiperidin-4-yl)-1H-pyrazol-4-yl]-7-aminofuro[2,3-c]pyridin-2-yl}-1H-isoindole-1,3(2H)-dione], for which the concentration for half-maximal inhibition (IC50) was 1000 to 10000 nM.

Turning to `COc1c(F)cccc1-c1cc2c(-c3cnn(C4CCNCC4)c3)cnc(N)c2o1` [Example 5, 2-(3-fluoro-2-methoxyphenyl)-4-[1-(piperidin-4-yl)-1H-pyrazol-4-yl]furo[2,3-c]pyridin-7-amine dihydrochloride], the half-maximal inhibitory concentration (IC50) was 1000 to 10000 nM.

For the compound `CC(=O)N1CCC(n2cc(-c3cnc(N)c4oc(-c5ccc(COc6cccc7ccccc67)cc5)cc34)cn2)CC1` [Example 156, 1-{4-[4-(7-amino-2-{4-[(naphthalen-1-yloxy)methyl]phenyl}furo[2,3-c]pyridin-4-yl)-1H-pyrazol-1-yl]piperidin-1-yl}ethanone], the 50% inhibitory concentration (IC50) is > 10000 nM.

As to `Nc1ncc(-c2cnn([C@H]3CC[C@H](O)CC3)c2)c2cc(-c3ccc4c(c3)CNC4=O)oc12` [Example 404, 5-{7-amino-4-[1-(trans-4-hydroxycyclohexyl)-1H-pyrazol-4-yl]furo[2,3-c]pyridin-2-yl}-2,3-dihydro-1H-isoindol-1-one], the IC50 lay in the range of 1000 to 10000 nM.

`CC(=O)N1CCC(n2cc(-c3cnc(N)c4oc(-c5ccc([N+](=O)[O-])nc5)cc34)cn2)CC1` [Example 119, 1-(4-{4-[7-amino-2-(6-nitropyridin-3-yl)furo[2,3-c]pyridin-4-yl]-1H-pyrazol-1-yl}piperidin-1-yl)ethanone]: the IC50 was in the range of 1000 to 10000 nM.

Consider `Cc1nc(C)c(-c2cnc(N)c3oc(-c4csc5cnccc45)cc23)s1` [Example 394, 4-(2,4-dimethyl-thiazol-5-yl)-2-thieno[2,3-c]pyridin-3-yl-furo[2,3-c]pyridin-7-ylamine], for which the concentration for half-maximal inhibition (IC50) fell in the range of 1000 to 10000 nM.

Consider `COC(=O)c1csc(-c2cnc(N)c3oc(-c4csc5cnccc45)cc23)c1` [Example 380, 5-(7-amino-2-thieno[2,3-c]pyridin-3-yl-furo[2,3-c]pyridin-4-yl)-thiophene-3-carboxylic acid methyl ester], for which the concentration for half-maximal inhibition (IC50) lay in the range of 1000 to 10000 nM.

Turning to `CC(C)Oc1cccc(/C=C/C(=O)N2CCC(n3cc(-c4cnc(N)c5oc(-c6cccc7cnsc67)cc45)cn3)CC2)c1` [Example 337, (E)-1-{4-[4-(7-amino-2-benzo[d]isothiazol-7-yl-furo[2,3-c]pyridin-4-yl)-pyrazol-1-yl]-piperidin-1-yl}-3-(3-isopropoxy-phenyl)-propenone], the IC50 was 1000 to 10000 nM.

Turning to `Nc1ncc(-c2cnn([C@H]3CC[C@H](O)CC3)c2)c2cc(-c3c(-c4ccccc4)sc4cnccc34)oc12` [Example 269, trans-4-{4-[7-amino-2-(2-phenylthieno[2,3-c]pyridin-3-yl)furo[2,3-c]pyridin-4-yl]-1H-pyrazol-1-yl}cyclohexanol trifluoroacetate], the IC50 lay in the range of 1000 to 10000 nM.

With `Nc1ncc(-c2cnn([C@H]3CC[C@H](O)CC3)c2)c2cc(-c3cc(C(F)(F)F)cc(C(F)(F)F)c3)oc12` [Example 401, trans-4-(4-{7-amino-2-[3,5-bis(trifluoromethyl)phenyl]furo[2,3-d]pyridin-4-yl}-1H-pyrazol-1-yl)cyclohexanol], the IC50 is > 10000 nM.

Take `CCC(C)Oc1cccc(-c2cc3c(-c4cnn(C5CCN(C(C)=O)CC5)c4)cnc(N)c3o2)c1` (centres unmarked) [Example 210]: the half-maximal inhibitory concentration (IC50) was > 10000 nM.

For the compound `Nc1ncc(-c2cnn(C3CCNCC3)c2)c2cc(-c3ccc4[nH]cnc4c3)oc12` [Example 39, 2-(1H-benzimidazol-5-yl)-4-[1-(piperidin-4-yl)-1H-pyrazol-4-yl]furo[2,3-c]pyridine-7-amine], the IC50 is 100 to 1000 nM.

On to `Cc1ccc(-c2cnc(N)c3oc(-c4csc5cnccc45)cc23)o1` [Example 387, 4-(5-methylfuran-2-yl)-2-(thieno[2,3-c]pyridin-3-yl)furo[2,3-c[pyridin-7-amine trifluoroacetate], for which the IC50 was in the range of 1000 to 10000 nM.

Turning to `CC(=O)N1CCC(n2cc(-c3cnc(N)c4oc(C5CCCCC5)cc34)cn2)CC1` [Example 152, 1-{4-[4-(7-amino-2-cyclohexylfuro[2,3-c]pyridin-4-yl)-1H-pyrazol-1-yl]piperidin-1-yl}ethanone], the IC50 lay in the range of 100 to 1000 nM.

For `Cc1c(-c2cccc3ccsc23)oc2c(N)ncc(-c3cnn(C4CCNCC4)c3)c12` [Example 10, 2-(1-benzothiophen-7-yl)-3-methyl-4-[1-(piperidin-4-yl)-1H-pyrazol-4-yl]furo[2,3-c]pyridin-7-amine hydrochloride], the IC50 lay in the range of 1000 to 10000 nM.

Take `Cc1c(-c2cnc(N)c3oc(-c4csc5cnccc45)cc23)cnn1[C@@H]1C[C@@H](O)[C@@H](O)C1` [Example 312, rel-(1R,2S,4S)-4-[4-(7-amino-2-thieno[2,3-c]pyridin-3-yl-furo[2,3-c]pyridin-4-yl)-5-methyl-pyrazol-1-yl]-cyclopentane-1,2-diol]: the IC50 was in the range of 1000 to 10000 nM.

Usually IC50 stands for the point on the concentration scale where inhibition reaches its midpoint.
